{"source": "ChEMBL document CHEMBL1201862", "about": "“PubChem BioAssay data set” (2004)", "key": {"[1]": {"assay": "HEp-2 cell cytotoxicity, dose response, cytotoxicity control for RSV inhibitor project, HTS (AID 2410)", "assay_type": "functional", "settings": "human respiratory syncytial virus"}, "[2]": {"biological_target": "Disintegrin and metalloproteinase domain-containing protein 17 (Homo sapiens, UniProt P78536)", "sequence (P78536 whole entry, the tested form may be a part)": "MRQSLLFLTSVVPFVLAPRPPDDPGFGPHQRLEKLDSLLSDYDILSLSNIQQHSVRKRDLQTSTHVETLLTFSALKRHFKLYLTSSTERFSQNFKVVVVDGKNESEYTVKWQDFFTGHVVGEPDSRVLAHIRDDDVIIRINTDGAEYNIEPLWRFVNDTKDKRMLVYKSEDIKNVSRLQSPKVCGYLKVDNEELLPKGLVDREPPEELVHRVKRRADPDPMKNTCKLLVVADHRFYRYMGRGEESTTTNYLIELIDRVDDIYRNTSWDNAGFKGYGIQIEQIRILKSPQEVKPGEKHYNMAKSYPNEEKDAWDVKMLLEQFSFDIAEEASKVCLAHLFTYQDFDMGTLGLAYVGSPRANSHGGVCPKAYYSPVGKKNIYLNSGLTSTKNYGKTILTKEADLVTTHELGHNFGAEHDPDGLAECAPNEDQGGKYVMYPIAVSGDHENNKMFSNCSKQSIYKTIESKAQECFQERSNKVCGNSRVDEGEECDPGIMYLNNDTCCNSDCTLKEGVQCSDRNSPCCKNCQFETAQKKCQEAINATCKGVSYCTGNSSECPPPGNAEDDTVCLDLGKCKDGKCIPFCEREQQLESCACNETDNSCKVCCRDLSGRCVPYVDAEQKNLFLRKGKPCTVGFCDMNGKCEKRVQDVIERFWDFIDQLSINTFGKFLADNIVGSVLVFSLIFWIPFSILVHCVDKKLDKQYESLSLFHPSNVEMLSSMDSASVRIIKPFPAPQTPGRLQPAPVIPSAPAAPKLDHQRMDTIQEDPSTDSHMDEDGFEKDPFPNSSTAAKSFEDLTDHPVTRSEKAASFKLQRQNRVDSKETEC", "assay": "exosite inhibitors of ADAM17, dose response, biochemical (AID 743260)"}, "[3]": {"assay": "ADAM10 protease inhibitors, dose response, selectivity assay for ADAM17 exosite inhibitor project, biochemical, FRET peptide substrate, recombinant human ADAM10 (AID 743259);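 also: ADAM10 enzyme cleaving a FRET peptide substrate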"}, "[4]": {"assay": "inhibitors of Vif binding to APOBEC3G peptide, primary screen, biochemical, TR-FRET, GST-Vif 1-94, biotin-A3G peptide, dose response retest (AID 1117319);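 also: TR-FRET signal of purified GST-Vif binding a biotinylated A3G peptide; inhibitors lower the FRET signal by blocking Vif and A3G binding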", "assay_type": "functional"}, "[5]": {"assay": "THP-1 cell cytotoxicity, dose response, cytotoxicity control for Vif-APOBEC3G degradation inhibitor project, THP-1 cells (AID 1117359)", "assay_type": "functional", "settings": "Human immunodeficiency virus 1, THP-1"}, "[6]": {"assay": "microbe, parasite or virus in culture", "assay_type": "functional", "settings": "Mycobacterium tuberculosis"}, "[7]": {"assay": "THP-1 cell cytotoxicity, dose response, cytotoxicity control for non-replicating M. tuberculosis project (AID 489025)", "assay_type": "functional"}, "[8]": {"assay": "Vero E6 cell cytotoxicity, dose response, cytotoxicity control for non-replicating M. tuberculosis project, secondary assay (AID 492998)", "assay_type": "functional, VeroE6", "settings": "Vero C1008"}, "cells": {"assay": "cells", "assay_type": "functional"}, "[9]": {"biological_target": "Peroxisome proliferator-activated receptor gamma/Nuclear receptor coactivator 1 (Homo sapiens, UniProt P37231)", "sequence (P37231 whole entry)": "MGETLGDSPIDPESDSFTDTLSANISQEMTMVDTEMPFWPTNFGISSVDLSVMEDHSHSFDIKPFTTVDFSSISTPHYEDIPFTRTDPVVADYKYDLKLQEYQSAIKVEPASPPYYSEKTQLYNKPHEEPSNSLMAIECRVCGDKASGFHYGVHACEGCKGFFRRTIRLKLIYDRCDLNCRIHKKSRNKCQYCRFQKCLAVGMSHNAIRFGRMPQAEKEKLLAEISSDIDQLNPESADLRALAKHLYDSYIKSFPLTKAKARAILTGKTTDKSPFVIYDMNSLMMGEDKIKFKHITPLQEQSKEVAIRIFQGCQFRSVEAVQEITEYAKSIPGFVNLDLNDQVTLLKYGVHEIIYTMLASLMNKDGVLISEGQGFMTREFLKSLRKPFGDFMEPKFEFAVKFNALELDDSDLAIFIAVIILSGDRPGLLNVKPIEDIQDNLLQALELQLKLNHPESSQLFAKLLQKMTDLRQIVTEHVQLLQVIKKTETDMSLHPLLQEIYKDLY", "sequence (Q15788 whole entry, further chain)": "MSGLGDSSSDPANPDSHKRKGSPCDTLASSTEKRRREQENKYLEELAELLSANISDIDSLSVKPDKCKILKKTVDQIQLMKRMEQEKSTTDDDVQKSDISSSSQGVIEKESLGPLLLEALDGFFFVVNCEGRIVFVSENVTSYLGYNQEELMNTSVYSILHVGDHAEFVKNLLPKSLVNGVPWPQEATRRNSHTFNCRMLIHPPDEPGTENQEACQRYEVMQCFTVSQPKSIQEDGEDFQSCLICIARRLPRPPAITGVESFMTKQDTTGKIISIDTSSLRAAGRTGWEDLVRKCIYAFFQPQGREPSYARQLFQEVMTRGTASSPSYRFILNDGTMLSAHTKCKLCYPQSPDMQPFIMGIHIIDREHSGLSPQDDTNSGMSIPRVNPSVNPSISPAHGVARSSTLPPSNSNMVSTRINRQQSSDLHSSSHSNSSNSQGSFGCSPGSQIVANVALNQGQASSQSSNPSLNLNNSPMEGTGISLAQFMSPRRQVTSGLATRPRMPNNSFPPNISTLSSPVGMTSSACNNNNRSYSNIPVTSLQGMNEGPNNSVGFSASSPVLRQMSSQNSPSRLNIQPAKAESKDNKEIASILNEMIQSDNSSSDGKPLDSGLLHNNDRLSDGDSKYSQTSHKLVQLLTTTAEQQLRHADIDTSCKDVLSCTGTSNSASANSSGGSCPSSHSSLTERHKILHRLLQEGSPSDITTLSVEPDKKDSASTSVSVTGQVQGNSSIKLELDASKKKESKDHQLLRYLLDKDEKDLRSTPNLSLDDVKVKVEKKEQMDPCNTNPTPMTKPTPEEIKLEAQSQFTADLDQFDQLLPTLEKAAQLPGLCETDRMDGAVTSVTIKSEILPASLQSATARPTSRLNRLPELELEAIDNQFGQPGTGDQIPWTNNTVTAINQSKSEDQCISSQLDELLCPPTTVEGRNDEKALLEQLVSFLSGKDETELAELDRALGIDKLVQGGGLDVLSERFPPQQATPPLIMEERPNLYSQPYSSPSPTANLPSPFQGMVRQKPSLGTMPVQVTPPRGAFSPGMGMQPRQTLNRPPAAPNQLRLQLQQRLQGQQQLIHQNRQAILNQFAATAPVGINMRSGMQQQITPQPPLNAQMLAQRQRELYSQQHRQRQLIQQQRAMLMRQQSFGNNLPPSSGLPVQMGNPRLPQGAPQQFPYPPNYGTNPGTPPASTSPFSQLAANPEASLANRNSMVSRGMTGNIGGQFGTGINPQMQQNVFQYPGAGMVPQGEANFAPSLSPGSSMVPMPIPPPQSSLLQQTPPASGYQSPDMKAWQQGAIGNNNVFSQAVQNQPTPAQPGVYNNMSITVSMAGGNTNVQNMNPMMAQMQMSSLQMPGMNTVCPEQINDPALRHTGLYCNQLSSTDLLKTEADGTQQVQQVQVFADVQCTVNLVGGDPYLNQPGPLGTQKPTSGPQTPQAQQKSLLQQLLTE", "assay": "(§1) TR-FRET dose response biochemical High Throughput Screening assay for agonists of the steroid receptor coactivator 1 (SRC-1) recruitment by the peroxisome proliferator-activated receptor gamma (PPAR gamma): non-selective agonists. [Related pubchem assays (depositor defined):AID1300, AID1808, AID504735, AID631]", "assay_type": "protein assay"}, "[10]": {"biological_target": "Peroxisome proliferator-activated receptor gamma/Nuclear receptor coactivator 3 (Homo sapiens, UniProt P37231)", "assay": "as §1, with “3 (SRC-3)” for “1 (SRC-1)”, “assays: 1301 (Confirmation screen.), 1048 (Primary screen.)]” for “assays (depositor defined):AID1300, AID1808, AID504735, AID631]”", "assay_type": "functional"}, "[11]": {"biological_target": "Peroxisome proliferator-activated receptor gamma/Nuclear receptor coactivator 2 (Homo sapiens, UniProt P37231)", "sequence (P37231 whole entry)": "as the sequence (P37231 whole entry) above", "sequence (Q15596 whole entry, further chain)": "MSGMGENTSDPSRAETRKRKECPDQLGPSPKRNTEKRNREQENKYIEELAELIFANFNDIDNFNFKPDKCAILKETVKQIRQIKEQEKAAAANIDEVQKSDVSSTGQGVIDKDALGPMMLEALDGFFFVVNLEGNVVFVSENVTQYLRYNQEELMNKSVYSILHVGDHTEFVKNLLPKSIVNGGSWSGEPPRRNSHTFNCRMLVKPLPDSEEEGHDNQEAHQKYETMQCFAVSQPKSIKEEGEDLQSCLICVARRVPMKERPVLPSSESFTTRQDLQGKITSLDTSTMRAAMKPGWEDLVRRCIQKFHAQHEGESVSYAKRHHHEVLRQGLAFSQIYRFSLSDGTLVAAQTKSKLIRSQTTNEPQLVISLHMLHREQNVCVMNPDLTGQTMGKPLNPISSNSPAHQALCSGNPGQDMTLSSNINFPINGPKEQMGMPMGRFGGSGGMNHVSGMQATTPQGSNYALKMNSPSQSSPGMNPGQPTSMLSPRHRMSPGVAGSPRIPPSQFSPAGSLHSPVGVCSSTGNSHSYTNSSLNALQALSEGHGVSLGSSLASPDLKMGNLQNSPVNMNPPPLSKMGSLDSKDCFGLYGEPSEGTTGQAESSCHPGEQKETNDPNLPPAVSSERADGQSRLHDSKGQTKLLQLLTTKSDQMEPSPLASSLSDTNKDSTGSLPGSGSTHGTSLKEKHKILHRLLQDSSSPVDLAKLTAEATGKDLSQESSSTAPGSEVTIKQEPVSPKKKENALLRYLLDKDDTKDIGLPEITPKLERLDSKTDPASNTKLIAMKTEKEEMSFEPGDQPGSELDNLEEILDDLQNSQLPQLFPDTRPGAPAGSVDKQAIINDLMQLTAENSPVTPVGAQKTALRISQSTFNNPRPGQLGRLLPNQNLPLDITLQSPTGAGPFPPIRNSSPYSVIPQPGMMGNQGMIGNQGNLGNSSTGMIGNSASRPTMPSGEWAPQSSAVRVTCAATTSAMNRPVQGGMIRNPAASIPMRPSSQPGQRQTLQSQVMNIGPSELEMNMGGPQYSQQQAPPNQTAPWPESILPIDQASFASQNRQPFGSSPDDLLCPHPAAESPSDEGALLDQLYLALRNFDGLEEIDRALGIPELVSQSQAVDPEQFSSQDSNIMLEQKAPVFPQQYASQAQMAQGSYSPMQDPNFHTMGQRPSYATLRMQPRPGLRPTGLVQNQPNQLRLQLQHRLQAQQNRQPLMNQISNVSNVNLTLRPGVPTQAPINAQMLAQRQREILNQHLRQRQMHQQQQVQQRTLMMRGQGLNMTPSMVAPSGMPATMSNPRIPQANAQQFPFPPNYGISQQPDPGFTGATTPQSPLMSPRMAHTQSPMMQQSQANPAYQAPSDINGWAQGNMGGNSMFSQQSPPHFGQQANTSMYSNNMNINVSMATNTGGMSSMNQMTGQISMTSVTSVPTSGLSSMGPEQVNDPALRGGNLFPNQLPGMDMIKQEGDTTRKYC", "assay": "TR-FRET dose response biochemical High Throughput Screening assay for agonists of the steroid receptor coactivator 2 (SRC-2) recruitment by the peroxisome proliferator-activated receptor gamma (PPAR gamma): non-selective agonists. [Related pubchem assays: 1297, 1032 ]", "assay_type": "functional"}, "[12]": {"biological_target": "FAD-linked sulfhydryl oxidase ALR (Homo sapiens, UniProt P55789)", "sequence (P55789 whole entry)": "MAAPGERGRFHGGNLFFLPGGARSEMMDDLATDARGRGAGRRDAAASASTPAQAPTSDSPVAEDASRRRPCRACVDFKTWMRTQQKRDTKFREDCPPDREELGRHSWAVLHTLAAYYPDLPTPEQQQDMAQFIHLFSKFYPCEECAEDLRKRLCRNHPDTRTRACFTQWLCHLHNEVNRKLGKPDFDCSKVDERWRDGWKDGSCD", "assay": "inhibitors of human ALR sulfhydryl oxidase, dose response, biochemical, H2O2 detection, luminescence, cherry-pick (AID 493248)"}}, "note": "Calls of active or inactive are those of the source.", "data": [{"smiles": "Cc1ccccc1-c1nc(S(=O)(=O)c2ccc(Br)cc2)c(NCc2cccnc2)o1", "values": [{"measurement": "CC50", "setting": "[1]", "result": "21.9 µM (active)"}, {"measurement": "IC50", "setting": "[2]", "result": "> 69.5 µM (inactive)"}, {"measurement": "IC50", "setting": "[3]", "result": "> 69.5 µM (inactive)"}]}, {"smiles": "Cc1ccc(C(=O)OCc2cn3ccccc3n2)cc1", "values": [{"measurement": "IC50", "setting": "[4]", "result": "> 100 µM (active)"}]}, {"smiles": "COc1ccc(NC(=O)/C(C#N)=C/c2ccc(Sc3nncn3C)c([N+](=O)[O-])c2)cc1", "values": [{"measurement": "CC50", "setting": "[5]", "result": "> 40 µM (active)"}, {"measurement": "IC50", "setting": "[4]", "result": "> 100 µM (active)"}]}, {"smiles": "O=C(CCN1C(=O)/C(=C/c2ccccc2Cl)SC1=S)N1CCCC1", "values": [{"measurement": "CC50", "setting": "[6]", "result": "8.2 µM (active)"}, {"measurement": "CC50", "setting": "[7]", "result": "19.7 µM (active)"}, {"measurement": "CC50", "setting": "[8]", "result": "11.4 µM (active)"}, {"measurement": "IC50", "setting": "cells", "result": "28.4 µM (active)"}]}, {"smiles": "O=C(COC(=O)Cc1ccc(Cl)cc1)NCc1ccco1", "values": [{"measurement": "CC50", "setting": "[5]", "result": "> 40 µM (active)"}]}, {"smiles": "COc1ccc(Br)cc1-c1nc(CCl)cs1", "values": [{"measurement": "EC50", "setting": "[9]", "result": "9.93 µM (active)"}, {"measurement": "EC50", "setting": "[10]", "result": "> 79.4 µM (not active)"}, {"measurement": "EC50", "setting": "[11]", "result": "5.52 µM (active)"}, {"measurement": "AC50", "setting": "[12]", "result": "14.1 µM (active)"}]}, {"smiles": "COc1ccc(NC(=O)CSc2nnc(C)n2Cc2ccccc2)cc1", "values": [{"measurement": "IC50", "setting": "[4]", "result": "> 12.5 µM (active)"}]}, {"smiles": "CC(Sc1nc(N2CCCCC2)c2c(c1C#N)CCCC2)C(=O)O", "note": "(centres undefined)", "values": [{"measurement": "EC50", "setting": "[9]", "result": "33.9 µM (inactive)"}, {"measurement": "EC50", "setting": "[10]", "result": "> 79.4 µM (not active)"}, {"measurement": "EC50", "setting": "[11]", "result": "64.9 µM (not active)"}]}]}
